Experimental data from the RepoRT retention time repository (doi:10.1021/es4044374).

Test: RP, Waters XBridge C18, 50 × 2.1 mm, 3.5 µm, 30 °C, 0.2 mL/min, estimated dead time 0.55 min; A: water + 0.1% formic acid, pH 3; B: methanol + 0.1% formic acid, pH 3; gradient (min/%B) 0/10 4/50 17/95 25/95 25.1/10 30/10
Details: stereoisomer not certain

Row | SMILES | LC retention time
1 | CCc1ccc(C(=O)NN(C(=O)c2cc(C)cc(C)c2)C(C)(C)C)cc1 [Tebufenozide] | 12.4 min
2 | CC(C)N(Cc1ccccc1)C(=O)C(C)(C)C [Tebutam] | 11.7 min
3 | O=C(NC(=O)c1c(F)cccc1F)Nc1cc(Cl)c(F)c(Cl)c1F [Teflubenzuron] | 16.1 min
4 | CCCc1nc2c(C)cc(-c3nc4ccccc4n3C)cc2n1Cc1ccc(-c2ccccc2C(=O)O)cc1 [Telmisartan] | 9.2 min
5 | CCNc1nc(NC(C)(C)C)nc(OC)n1 [Terbumeton] | 6.7 min
6 | CCNc1nc(NC(C)(C)C)nc(SC)n1 [Terbutryn] | 8.5 min
7 | CCNc1nc(NC(C)(C)C)[nH]c(=O)n1 [Terbutylazine-2-hydroxy] | 5.6 min
8 | CC(C)(C)Nc1nc(N)[nH]c(=O)n1 [Terbutylazine-desethyl-2-hydroxy] | 2.9 min
9 | CC(C)(C)Nc1nc(N)nc(Cl)n1 [Terbutylazine-desethyl] | 7.6 min
10 | CCNc1nc(Cl)nc(NC(C)(C)C)n1 [Terbutylazine] | 10.1 min
11 | NC(=O)N=C1SCCN1Cc1ccc(Cl)nc1 [Thiacloprid-amide] | 4.6 min
12 | N#CN=C1SCCN1Cc1ccc(Cl)nc1 [Thiacloprid] | 5.8 min
13 | CN1COCN(Cc2cnc(Cl)s2)C1=N[N+](=O)[O-] [Thiamethoxam] | 4.1 min
14 | COC(=O)c1sccc1S(=O)(=O)NC(=O)Nc1nc(C)nc(OC)n1 [Thifensulfuron-methyl] | 7.2 min
15 | CCCC(C)C1(CC)C(=O)NC(=S)NC1=O (stereo not drawn) [Thiopental] | 9 min
16 | COc1cccc(C2(O)CCCCC2CN(C)C)c1 (stereo not drawn) [Tramadol] | 4.9 min
17 | O=C(Nc1ccc(Cl)cc1)Nc1ccc(Cl)c(Cl)c1 [Triclocarban] | 14.8 min
18 | O=C(O)COc1nc(Cl)c(Cl)cc1Cl [Triclopyr] | 10.3 min
19 | CCCN(CCC)c1c([N+](=O)[O-])cc(C(F)(F)F)cc1[N+](=O)[O-] [Trifluralin] | 16.5 min
20 | COc1cc(Cc2cnc(N)nc2N)cc(OC)c1OC [Trimethoprim] | 3.8 min
21 | CC(CN(C)C)CN1c2ccccc2CCc2ccccc21 (stereo not drawn) [Trimipramine] | 8.7 min
22 | CCOC(=O)C1CC(=O)C(=C(O)C2CC2)C(=O)C1 (stereo not drawn) [Trinexapac-ethyl] | 8.9 min
23 | O=C1CC(C(=O)O)CC(=O)C1=C(O)C1CC1 (stereo not drawn) [Trinexapac] | 6.9 min
24 | COc1nc(NC(=O)NS(=O)(=O)c2ccccc2C(F)(F)F)nc(C(F)(F)F)n1 [Tritosulfuron] | 10.8 min
25 | CCC1OC(=O)CC(O)C(C)C(OC2OC(C)C(OC3CC(C)(O)C(O)C(C)O3)C(N(C)C)C2O)C(CC=O)CC(C)C(=O)C=CC(C)=CC1COC1OC(C)C(O)C(OC)C1OC (stereo not drawn) [Tylosin] | 8.1 min
26 | CCCCC(=O)N(Cc1ccc(-c2ccccc2-c2nn[nH]n2)cc1)C(C(=O)O)C(C)C (stereo not drawn) [Valsartan] | 11.2 min
27 | COc1ccc(C(CN(C)C)C2(O)CCCCC2)cc1 (stereo not drawn) [Venlafaxine] | 6.2 min
28 | COc1ccc(CCN(C)CCCC(C#N)(c2ccc(OC)c(OC)c2)C(C)C)cc1OC (stereo not drawn) [Verapamil] | 7.3 min
